Test results from patent US20140241988A1, “METHODS AND COMPOSITIONS FOR TREATING ATRIAL FIBRILLATION” (The Regents of The University of Michigan, priority 2013, published 2014).
“Also recorded” adds a separate entry of the source.

Experiments:
[1] = system: SCN5A; assay: qPCR mRNA expression; type: cell-based, rat
Description: (§1) Cell Treatment: Isolated adult rat cardiac myocytes were treated with FCM or TGF-β1 (R and D systems, Minneapolis, Minn.) for 3 days in serum free medium. For PI3K pathway inhibition cells were pretreated (30 min) with 10 μM […] (Cayman Chemicals, Ann Arbor) before the treatment with TGF-β1. mRNA analysis by quantitative PCR (qPCR): Cardiac myocytes were washed with PBS and lysed with lysis buffer. RNA was isolated from the myocardial tissue using RNAeasy kit from Qiagen (Qiagen, Valencia, Calif.) according to the manufacturer's instructions. Isolated RNA from these samples was treated with DNase for 15 min at room temperature (Qiagen, Valencia, Calif.). 100 ng of DNA-free total poly-A tail RNA (mRNA) was first subjected to synthesis of cDNA using Oligo dT primers applying SuperScript III First-Strand Synthesis System from Invitrogen (Invitrogen, Carlsbad, Calif.) according to the manufacturer's instructions. cDNA from 20 ng of total RNA was then subjected to real-time RT-PCR using predesigned taqman probe primers specific for rat Scn5a (Rn00565502), Kcnip2 (Kchip2; Rn01411451) and kcnd2 (Rn01456260) (Applied Biosystems, California). No-template controls and no-RT controls were run during each experiment to detect any RNA and/or DNA contamination. Results are expressed as fold expression of gene of interest normalized to GAPDH expression in the sample. Western blotting: Control and treated cardiac myocytes were washed in cold PBS, lysed directly in the modified loading buffer (25 mmol/l Tris.HCl; 150 mmol/l NaCl; 1 mmol/l EDTA; 4 mmol/l NaF; 2 mmol/l Sodium ortho-vanadate; 1% Triton X-100, protease inhibitor, 5% glycerol, 1% SDS, 0.05% bromophenol blue, 5% β mercaptoethanol) and sonicated. The lysate (20 μl) were then subjected SDS-PAGE as described earlier. The blots were incubated with rabbit pFOXO1 antibody, 1:500 (Cell Signaling) or rabbit GAPDH antibody, 1:5000 (Sigma-Aldrich, St. Louis, Mo.). Patch-clamp experiments: Whole-cell ionic currents were recorded from adult rat ventricular myocytes. All recordings were conducted at room temperature. Sodium current recordings were conducted in a low-sodium extracellular solution containing (in mM): NaCl, 10; MgCl2, 1; CaCl2, 1.8; CdCl2, 0.1; HEPES, 20; CsCl, 127.5; glucose, 11. The pipette solution contained (in mM): NaCl, 5; CsF, 135; EGTA, 10; MgATP, 5; HEPES, 5. To characterize the voltage dependence of the peak INa, single cells were held at −120 mV, and 200 msec voltage steps were applied from −90 to +30 mV in 5 mV increments. The interval between voltage steps was 3 sec. Voltage-dependence of inactivation was assessed by holding cells at various potentials from −160 to −40 mV followed by a 30 msec test pulse to −40 mV to elicit INa. […]

[2] = system: FOXO1; assay: Western blot of FOXO1 phosphorylation; type: cell-based, rat
Description: as §1, with “The blots were incubated with rabbit pFOXO1 antibody, 1:500 (Cell Signaling) or rabbit GAPDH antibody, 1:5000 (Sigma-Aldrich, St. Louis, Mo.).” left out, “All recordings were conducted at room temperature. Sodium current recordings were conducted in a low-sodium extracellular solution containing (in mM): NaCl, 10; MgCl2, 1; CaCl2, 1.8; CdCl2, 0.1; HEPES, 20; CsCl, 127.5; glucose, 11. The pipette solution contained (in mM): NaCl, 5; CsF, 135; EGTA, 10; MgATP, 5; HEPES, 5. To characterize the voltage dependence of the peak INa, single cells were held at −120 mV, and 200 msec voltage steps were applied from −90 to +30 mV in 5 mV increments. The interval between voltage steps was 3 sec.” left out

[3] = system: adult sheep atrial fibroblasts; assay: Wound healing (migration) assay; type: cell-based; settings: Gal-3 10 μg/ml, days 0-2
Description: (§2) Wound healing experiments were performed to investigate if exogenous Gal-3 can increase myofibroblast migration in vitro (FIG. 3). Adult sheep atrial fibroblasts were cultured in 96-well plates until confluent. Before serum starvation, cells were stained with cell tracker dye and DAPI. A wound was created by scraping a semi-confluent monolayer of cells with a 1 ml pipette tip. Thereafter, cells underwent serum starvation in DMEM with 5% FBS for 6 hrs. Comparisons were made between untreated and Gal-3 treated (1 μg/ml or 10 μg ml) cells. The wound was imaged at 4 different locations at 3 different time points (days 0, 1 and 2). The size of the wound was quantified using the NIS element program by Nikon. […] Next, to investigate the effects of Gal-3 on myofibroblast proliferation, adult sheep atrial fibroblasts were treated with recombinant human Gal-3 (EMD chemicals, USA) for 24 hours in the presence of SFM. FM was included as a positive control. Cell proliferation was measured using cell proliferation reagent WST (Roche Diagnostics, USA). […] Such concentrations are in the same range used previously (Sharma et al., Circulation. 2004; 110:3121-3128) to investigate Gal-3 induced fibroblast proliferation in the cardiomyopathic heart.

[4] = system: adult sheep atrial myofibroblasts; assay: Cell proliferation assay (WST reagent); type: cell-based; settings: Gal-3 1-30 μg/ml, 24 hours, SFM
Description: as §2

[5] = system: adult rat ventricular myocytes; assay: Whole-cell patch clamp, peak inward sodium current (INa); type: cell-based
Description: as §1

[6] = system: adult rat ventricular myocytes; assay: Whole-cell patch clamp, transient outward potassium current (Ito); type: cell-based; settings: 72 hr
From the text: The extracellular solution for transient outward potassium current (Ito) contained (in mM): 136 NaCl, 4 KCl, 1.8 CaCl2, 2 MgCl2, 10 HEPES, 0.03 tetrodotoxin, 0.01 nifedipine, and 14 glucose, pH 7.35. The pipette solution contained (in mM):135 KCl, 1 MgCl2, 10 EGTA, 10 HEPES, 5 glucose, pH 7.2. Voltage-gated outward K+ currents were evoked during 5-s depolarizing voltage steps to potentials between −40 and +60 mV from a holding potential of −70 mV; voltage steps were presented in 10 mV increments at 15 s intervals
(§3) In all experiments, cells were exposed to one of the following for 72 hrs prior to the experiment: control medium, FCM or TGF-β1.

[7] = system: adult rat ventricular myocytes; assay: Current clamp action potential recording; type: cell-based
Description: Action potentials were recorded from individual myocytes using the current clamp mode of the MultiClamp 700B amplifier after gigaseal formation and patch break. Stimulus pulses (1-2 ms duration) were generated using a World Precision Instruments DS8000 stimulator (Sarasota, Fla.). The bath solution contained (in mM): NaCl: 148, KCl: 5.4, MgCl2: 1, CaCl2 1.8, NaH2PO4: 0.4, HEPES: 15, Glucose: 5.5, pH 7.4 with NaOH. The pipette solution contained (in mM), KCl: 20, K-aspartate: 90, KH2PO4: 10, EDTA: 5.0, K2ATP: 1.9, HEPES: 5.0 and Mg2+ 7.9; pH 7.2 (KOH)
as §3

[8] = system: KCND2; assay: qPCR mRNA expression; type: cell-based, rat; settings: 1 ng/ml, 72 hr
Description: as §1

[9] = system: KCNIP2; assay: qPCR mRNA expression; type: cell-based, rat; settings: 1 ng/ml, 72 hr
Description: as §1

Compound: O=c1cc(N2CCOCC2)oc2c(-c3ccccc3)cccc12 [LY 29004, reference compound]
- TGF-β1 induced increase in SCN5A transcription ([1]; pretreated with PI3K inhibitor (10 μM, 30 min)): failed to show increased SCN5A transcription
- phosphorylation of FOXO1 in TGF-β1 treated cells ([2]; pretreated with PI3K inhibitor): inhibited

Compound: Gal-3: recombinant human Gal-3 (EMD chemicals, USA)
- rate of migration / wound healing [3]: significantly increased the rate of migration and promoted wound healing; also recorded: increases the rate of wound healing
- proliferation (number) of adult sheep atrial myofibroblasts [4]: increased the number of adult sheep atrial myofibroblasts in a concentration-dependent manner; also recorded: increases proliferation

Compound: TGF-β1: exogenous TGF-β1 cytokine (R and D systems, Minneapolis, Minn.)
- more inward current compared to control medium ([5]; 1 ng/ml, at −40V (so in the source)): about 40%
- EC50 for increase of peak inward INa density ([5]; 72 hours, 0.001-1.0 ng/ml): 0.007 ng/mL
- voltage dependence of activation (m∞) and inactivation (h∞) ([5]; 72 hr treatment): neither the m∞ nor the h∞ curve was modified
- maximum INa increase ([5]; at 1 ng/ml (also seen at 10 ng/ml), 72 hours): about 40%
- peak Ito ([6]; 1 ng/ml): significantly reduced the peak Ito but to a much modest level
- Ito current density ([6]; 10 ng/ml, 60 mV): 12.6±0.98
- Ito current density, % of control levels ([6]; 10 ng/ml, 60 mV): 57%
- reduction of Ito current density ([6]; 10 ng/ml, +20 mV): 42%
- APD30 ([7]; 10 ng/ml, BCL 1000 ms): 29.1 ± 5.6 ms
- APD30 times larger than control ([7]; 10 ng/ml, BCL 1000 ms): > 3.5 times
- APD / early afterdepolarizations ([7]; 50 ng/ml): APD was so prolonged that some cells early after depolarizations (EADs)
- decrease of KCND2 expression with respect to control [8]: 50.6%
- reduction of KCNIP2 mRNA levels [9]: 77%
- SCN5A transcript levels, fold increase ([1]; 1 ng/ml, 72 hr): 1.73±0.26 fold
- increase in phosphorylated FOXO1 vs control ([2]; 1 ng/ml): 67%
- time of peak FOXO1 phosphorylation ([2]; 1 ng/ml): 15 min
